According to the supplement of paper PMC11061612:

What was measured:
Test in all cases: combination Emax (second highest fraction inhibited in the dose matrix, 72 h); higher = more inhibition; extreme values may be limits of the assay
[1] = test system: JHH-6 (Hepatocellular Carcinoma)
In short: (§1)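 Cell lines grown in DMEM/F12 or RPMI with 10% FBS were plated in 1536-well plates and held 24 hours at 37°C, 5% CO2 before 72 hours of exposure to two-drug dose matrices, with DMSO typically at 0.2%. CellTiter-Glo 2.0 luminescence gave viability, which was converted to inhibition. Vehicle wells were set to 0 and blank wells to 1. Combination Emax is the second-highest inhibition in the matrix, and Bliss excess is the observed combination effect minus the expected EA + EB − EA·EB, where EA and EB are the single-agent effects.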

[2] = test system: SW48 (Colorectal Carcinoma)
In short: as §1

[3] = test system: MCF7 (Breast Carcinoma)
In short: as §1

[4] = test system: EW-22 (Ewing's Sarcoma)
In short: as §1

[5] = test system: ETK-1 (Biliary Tract Carcinoma)
In short: as §1

[6] = test system: SK-LMS-1 (Other Solid Carcinomas)
In short: as §1

[7] = test system: HCC-827 (Lung Adenocarcinoma)
In short: as §1

[8] = test system: MEG-01 (Chronic Myelogenous Leukemia)
In short: as §1

[9] = test system: WSU-DLCL2 (B-Cell Non-Hodgkin's Lymphoma)
In short: as §1

[10] = test system: H4 (Low Grade Glioma)
In short: as §1

[11] = test system: SK-MEL-1 (Melanoma)
In short: as §1

[12] = test system: TYK-nu (Ovarian Carcinoma)
In short: as §1

[13] = test system: SW948 (Colorectal Carcinoma)
In short: as §1

[14] = test system: SK-UT-1 (Other Solid Carcinomas)
In short: as §1

[15] = test system: HCC38 (Breast Carcinoma)
In short: as §1

[16] = test system: A172 (Glioblastoma)
In short: as §1

[17] = test system: EKVX (Non-Small Cell Lung Carcinoma)
In short: as §1

[18] = test system: CS1 (Chondrosarcoma)
In short: as §1

[19] = test system: D-283MED (Other Solid Carcinomas)
In short: as §1

[20] = test system: DOK (Oral Cavity Carcinoma)
In short: as §1

SMILES	combination Emax [1]	combination Emax [2]	combination Emax [3]	combination Emax [4]	combination Emax [5]	combination Emax [6]	combination Emax [7]	combination Emax [8]	combination Emax [9]	combination Emax [10]	combination Emax [11]	combination Emax [12]	combination Emax [13]	combination Emax [14]	combination Emax [15]	combination Emax [16]	combination Emax [17]	combination Emax [18]	combination Emax [19]	combination Emax [20]
CC1(C)CCC(CN2CCN(c3ccc(C(=O)NS(=O)(=O)c4ccc(NCC5CCOCC5)c([N+](=O)[O-])c4)c(Oc4cnc5[nH]ccc5c4)c3)CC2)=C(c2ccc(Cl)cc2)C1 [Venetoclax] + C1CN(CCC1(C(=O)N[C@@H](CCO)C2=CC=C(C=C2)Cl)N)C3=NC=NC4=C3C=CN4 [Capivasertib] (first compound max 1 µM, 7x7, partner max 3 µM)	0.232	0.267	0.42	0.905	0.331	0.271	0.273	0.731	1	0.473	0.208	0.298	0.646	0.34	0.244	0.289	0.302	0.324	0.582	0.331
CC1(C)CCC(CN2CCN(c3ccc(C(=O)NS(=O)(=O)c4ccc(NCC5CCOCC5)c([N+](=O)[O-])c4)c(Oc4cnc5[nH]ccc5c4)c3)CC2)=C(c2ccc(Cl)cc2)C1 [Venetoclax] + C=CCn1c(=O)c2cnc(Nc3ccc(N4CCN(C)CC4)cc3)nc2n1-c1cccc(C(C)(C)O)n1 [AZD1775] (first compound max 1 µM, partner max 1 µM)	0.296	0.809	0.452	0.924	0.497	0.61	0.413	0.913	0.995	0.85	0.411	0.681	0.773	0.921	0.573	0.315	0.172	0.682	0.979	0.333
CC1(C)CCC(CN2CCN(c3ccc(C(=O)NS(=O)(=O)c4ccc(NCC5CCOCC5)c([N+](=O)[O-])c4)c(Oc4cnc5[nH]ccc5c4)c3)CC2)=C(c2ccc(Cl)cc2)C1 [Venetoclax] + CCN(CCO)CCCOc1ccc2c(Nc3cc(CC(=O)Nc4cccc(F)c4)[nH]n3)ncnc2c1 [AZD2811] (first compound max 1 µM, 7x7, partner max 1 µM)	0.193	0.958	0.31	0.924	0.259	0.229	0.254	0.799	0.758	0.583	0.292	0.247	0.799	0.561	0.253	0.423	0.178	0.434	0.778	0.313
CC1(C)CCC(CN2CCN(c3ccc(C(=O)NS(=O)(=O)c4ccc(NCC5CCOCC5)c([N+](=O)[O-])c4)c(Oc4cnc5[nH]ccc5c4)c3)CC2)=C(c2ccc(Cl)cc2)C1 [Venetoclax] + CN(C)CCCOc1ccc(-c2ccc3ncc4c(c3c2)n(C2CCOCC2)c(=O)n4C)cn1 [AZD0156] (first compound max 1 µM, 7x7, partner max 1 µM)	0.212	0.607	0.242	0.866	0.202	0.5	0.26	0.782	0.33	0.232	0.231	0.174	0.409	0.381	0.193	0.238	0.22	0.56	0.706	0.2
CC1(C)CCC(CN2CCN(c3ccc(C(=O)NS(=O)(=O)c4ccc(NCC5CCOCC5)c([N+](=O)[O-])c4)c(Oc4cnc5[nH]ccc5c4)c3)CC2)=C(c2ccc(Cl)cc2)C1 [Venetoclax] + COc1cc(Nc2ncc3c(n2)-c2ccc(Cl)cc2C(c2c(F)cccc2OC)=NC3)ccc1C(=O)O [Alisertib] (first compound max 1 µM, 7x7, partner max 10 µM)	0.301	0.887	0.411	0.919	0.453	0.579	0.457	0.817	0.995	0.814	0.351	0.521	0.926	0.458	0.179	0.595	0.646	0.598	0.85	0.646
CC1(C)CCC(CN2CCN(c3ccc(C(=O)NS(=O)(=O)c4ccc(NCC5CCOCC5)c([N+](=O)[O-])c4)c(Oc4cnc5[nH]ccc5c4)c3)CC2)=C(c2ccc(Cl)cc2)C1 [Venetoclax] + C[C@@H]1COCCN1C2=NC(=NC(=C2)C3(CC3)[S@](=N)(=O)C)C4=C5C=CNC5=NC=C4 [AZD6738] (first compound max 1 µM, 7x7, partner max 10 µM)	0.459	0.752	0.705	0.929	0.723	0.548	0.33	0.883	0.969	0.768	0.391	0.722	0.595	0.895	0.531	0.595	0.214	0.701	0.954	0.414
CC1(C)CCC(CN2CCN(c3ccc(C(=O)NS(=O)(=O)c4ccc(NCC5CCOCC5)c([N+](=O)[O-])c4)c(Oc4cnc5[nH]ccc5c4)c3)CC2)=C(c2ccc(Cl)cc2)C1 [Venetoclax] + C[C@@H](Nc1cc(F)cc(F)c1)c1cc(C(=O)N(C)C)cc2c(=O)cc(N3CCOCC3)oc12 [AZD8186] (first compound max 1 µM, 7x7, partner max 3 µM)	0.193	0.275	0.255	0.881	0.212	0.412	0.254	0.646	0.888	0.383	0.198	0.495	0.264	0.206	0.16	0.171	0.367	0.415	0.615	0.188
CC1(C)CCC(CN2CCN(c3ccc(C(=O)NS(=O)(=O)c4ccc(NCC5CCOCC5)c([N+](=O)[O-])c4)c(Oc4cnc5[nH]ccc5c4)c3)CC2)=C(c2ccc(Cl)cc2)C1 [Venetoclax] + Cc1cc2ncnn2cc1Nc1ncc2c(n1)n(C1CCOCC1)c(=O)n2C [AZD7648] (first compound max 1 µM, 7x7, partner max 10 µM)	0.212	0.369	0.31	0.842	0.253	0.307	0.292	0.737	0.442	0.322	0.308	0.36	0.459	0.221	0.165	0.334	0.161	0.297	0.673	0.247
CC1(C)CCC(CN2CCN(c3ccc(C(=O)NS(=O)(=O)c4ccc(NCC5CCOCC5)c([N+](=O)[O-])c4)c(Oc4cnc5[nH]ccc5c4)c3)CC2)=C(c2ccc(Cl)cc2)C1 [Venetoclax] + Cn1cnc2c(F)c(Nc3ccc(Br)cc3Cl)c(C(=O)NOCCO)cc21 [Selumetinib] (first compound max 1 µM, 7x7, partner max 3 µM)	0.222	0.52	0.104	0.855	0.165	0.203	0.184	0.868	0.375	0.232	0.872	0.464	0.577	0.221	0.109	0.206	0.343	0.278	0.523	0.407
